For data set [1] the following is noted: counter ion selected for salt screening; cited from earlier work.
Data set [2] can be described thus: Solubility of free amine in solvents. Type of data set: physicochemical.
The nature of data set [3]: Solubility study without acetic acid. Type of data set: physicochemical. The note with it: aqueous with cosolvent or surfactant or cyclodextrin, combination of ascorbic acid and lactic acid, read-out: solubilized at a concentration of.
A short description of data set [4]: pKa (selection of counterions). It is filed as physicochemical. The note with it: weakly basic nature of the compound.

The values that follow come from patent publication US20260027125A1, “AN ANTIBACTERIAL PARENTERAL FORMULATION AND METHODS THEREOF” (BUGWORKS RESEARCH INDIA PVT. LTD., priority 2022, published 2026).

As for `CCS(=O)(=O)O` [ethane sulfonic acid], the “pKa (first value)” value in data set [1] is reported as 1.68.

For the molecule `Cn1c(=O)ccc2ccc(F)c(CCNC[C@H]3CN(c4cnc5c(n4)NC(=O)CO5)C(=O)O3)c21` [compound of Formula (I), (S)-6-(5-(((2-(7-fluoro-1-methyl-2-oxo-1,2-dihydroquinolin-8-yl)ethyl)amino)methyl)-2-oxooxazolidin-3-yl)-2H-pyrazino[2,3-b][1,4]oxazin-3(4H)-one], in data set [2], the solubility in solvents entry is “soluble only in dichloromethane and methanol (1:1) mixture”. In addition, the solubility in data set [3] amounted to 20 mg/mL. Also, in data set [4], the pKa is about 6.81.
